This is an account of results in US8920814B2, “Bacterial endotoxin for the prevention of metabolic disorders and bacterial infections” (The Governors of the University of Alberta, priority 2007, dated 2014).

One series has as its system colon tissue. The series is described as follows: Ussing chamber permeability of colon tissue to 3H-mannitol and LPS. Type of series: cell-based, feedlot steers. The following applies: for increase of permeability of colon tissue to 3H-mannitol: acidic pH 5.5 and presence of LPS (500 μg/mL), Ussing chamber. The source says: FIG. 6 is a graph depicting permeability of colon tissue (obtained from killed feedlot steers) to ^3H-labeled mannitol under different pH values and in the presence (▪) or absence (□) of lipopolysaccharide (LPS) from E. coli B:055 in an Ussing chamber.
FIG. 8 is a graph depicting translocation of LPS across colon tissue (obtained from killed feedlot steers) under different pH values and in the presence (▪) or absence (□) of lipopolysaccharide (LPS) from E. coli B:055 in an Ussing chamber.
(§1) Accordingly, we investigated whether common rumen fluid and colon concentrations of lipopolysaccharide (LPS) would affect the permeability of rumen and colon tissues to mannitol and LPS in Ussing chambers. In addition, this study was designed to answer the question whether acidic conditions similar to those found in the rumen fluid and colon during conditions of sub-acute and acute acidosis would affect the permeability of rumen and colon tissues to mannitol and LPS.
(§2) Mannitol is a monosaccharide with a molecular weight of 182 daltons and normally is not metabolized by mammalian tissues. Mannitol normally goes through mucosal tissues in small amounts and has been used to evaluate the integrity of mucosal barriers. […] Both acidic pH and presence of LPS disrupts mucosal membranes and make them leaky to bacteria and toxic compounds like endotoxin.
(§3) This means that LPS went through the mucosal membranes (rumen and colon tissues) independently of the pH value.

In another series the test system is rumen tissue. The series can be described thus: Ussing chamber permeability of rumen tissue to 3H-mannitol and LPS. Type of series: cell-based, feedlot steers. The settings on record: for increase of permeability of rumen tissue to 3H-mannitol: acidic pH 4.5 and presence of LPS (500 μg/mL), Ussing chamber.
Text: FIG. 5 is a graph depicting permeability of rumen tissue (obtained from killed feedlot steers) to ^3H-labeled mannitol under different pH values and in the presence (▪) or absence (□) of lipopolysaccharide (LPS) from E. coli B:055 in an Ussing chamber.
FIG. 7 is a graph depicting translocation of LPS across rumen tissue (obtained from killed feedlot steers) under different pH values and in the presence (▪) or absence (□) of lipopolysaccharide (LPS) from E. coli B:055 in an Ussing chamber.
as §1, §2, §3

Series [1] concerns transition dairy cows. The series can be described thus: Clinical incidence of postpartal metabolic disorders after oral vaccination of transition cows. The following applies: for reduction of the incidence of metabolic disorders: vs oral saline. Type of series: in vivo, Holstein cows. The source says: (§4) During their final 3 wk prepartum, 32 multiparous Holstein cows were housed in a tie-stall barn with wood shavings for bedding, the number at any given time varied depending on the number of cows at that stage of gestation. Cows were blocked based on their parity, previous milk production as well as their expected day of calving and randomly assigned to one of the four treatment groups (8 cows/group) in a randomized blocked design 2 wk before the expected day of calving until 4 wk postpartum. Cows were offered dry-period and early-lactation diets, formulated according to NRC recommendation (2001) for transition dairy cows.
Diets were mixed and offered as TMR individually once a day at 0600 h. Orts were recorded and discarded before the next feeding each day and the amount of feed was adjusted to ensure a 10% feed residual. Cows were milked twice a day at 0400 and 1500 h, and milk yield was recorded electronically every day for the first 28 days of lactation. All clinical disease and medication were recorded daily during the whole experimental period. The experiment was conducted at the University of Alberta Dairy Research and Technology Center, Edmonton, Canada. All cows were managed and treated in accordance with the guidelines established by the Canadian Council on Animal Care (1993) and all animal-related procedures were approved by the University of Alberta Faculty Animal Policy and Welfare Committee.
(§5) The four groups of cows were administered on d 14, 11, 7, and 4 before the expected day of parturition as well as on d 1 and 3 after parturition, one of the following treatments: (1) oral delivery of 2 mL of saline (0.15 M NaCl), (2) oral delivery of 2 mL of saline containing lipopolysaccharide (LPS) from Escherichia coli 0111:B4 (Sigma, St. Louis, Mo.), (3) intravenous delivery of 100 mL of saline (0.15 M NaCl), or (4) intravenous delivery of 100 mL of saline containing LPS from E. coli 0111:B4. A 5 mL syringe was used for administration of treatment into the oral cavity. The amount of LPS given to cows orally or intravenously (iv) was as follows: (1) on d 14 and 11 before the expected day of parturition 0.01 μg/kg of BW dissolved in 2 mL (oral) or 100 mL (iv) of saline, (2) on d 7 and 4 before the expected day of parturition 0.05 μg/kg of BW dissolved in 2 mL (oral) or 100 mL (iv) of saline, and (3) on d 1 and 3 after parturition 0.1 μg/kg of BW dissolved in 2 mL (oral) or 100 mL (iv) of saline. Cows were given one flat dose of LPS based on the 650 kg average body weight of cows at Dairy Research and Technology Transfer. Rectal temperature, respiration rate, and rumen contraction was measured from all cows 15 min before as well as 60, 120, 180, 240, 300, and 360 min after administration of treatment.

The test system of series [2] is transition dairy cows. The series is described as follows: Plasma metabolites, minerals and acute phase proteins of transition cows given LPS. Type of series: in vivo, Holstein cows. The following applies: oral.
Text: as §4, §5
A catheter was introduced into the jugular vein 1 h before the administration of treatment to all cows in the experiment. Blood samples were obtained from the jugular catheter 15 min before as well as at 15, 30, 60, 120, 180, 240, 300, and 360 min after administration of treatment on d 14, 11, 7, and 4 before the expected day of parturition as well as on d 1 and 3 after parturition. Also, 1 single blood sample was obtained during d 10, 17, and 24 after parturition.
(§6) Blood was collected into 10-ml Vacutainer tubes (Beckton Dickinson and Co., Rutherford, N.J.) containing K3-EDTA, and plasma was prepared by centrifugation within 20 min. Plasma samples were stored at −20° C. until analyzed for concentrations of serum amyloid A (SAA), lipopolysaccharide-binding protein (LBP), haptoglobin, C-reactive protein (CRP), glucose, insulin, non-esterified fatty acids (NEFA), beta-hydroxybutyric acid (BHBA), lactate, cholesterol, cortisol, calcium, copper, iron, zinc as well as anti-LPS immunoglobulin A, G, and M.

The test system of series [3] is transition dairy cows. The series can be described thus: Clinical responses, dry matter intake and milk yield of transition cows given LPS. Type of series: in vivo, Holstein cows. The settings on record: oral; whole experimental period. The source says: We then investigated how transition cows respond clinically to repeated oral and intravenous exposure to an E. coli antigen (E. coli lipopolysaccharide—(“LPS”)) during the 2 weeks before and 1 week after calving, and to determine the effects of repeated oral or intravenous administration of E. coli LPS on eating behaviour and milk yield during the transition period.
During their final 3 wk prepartum, 32 multiparous Holstein cows were housed in a tie-stall barn with wood shavings for bedding, the number at any given time varied depending on the number of cows at that stage of gestation. Cows were blocked based on their parity, previous milk production as well as their expected day of calving and randomly assigned to one of the four treatment groups (8 cows/group) in a randomized blocked design 2 wk before the expected day of calving until 4 wk postpartum. […]
Diets were mixed and offered as TMR individually once a day at 0600 h. Orts were recorded and discarded before the next feeding each day and the amount of feed was adjusted to ensure a 10% feed residual. Cows were milked twice a day at 0400 and 1500 h, and milk yield was recorded electronically every day for the first 28 days of lactation. All clinical disease and medication were recorded daily during the whole experimental period. […]

The test system of series [4] is transition dairy cows. The series is described as follows: Plasma anti-LPS immunoglobulins A, G and M of transition cows given oral LPS. Type of series: in vivo, Holstein cows. The following applies: around parturition.
Text: as §4
The four groups of cows were administered on d 14, 11, 7, and 4 before the expected day of parturition as well as on d 1 and 3 after parturition, one of the following treatments: (1) oral delivery of 2 mL of saline (0.15 M NaCl), (2) oral delivery of 2 mL of saline containing lipopolysaccharide (LPS) from Escherichia coli 0111:B4 (Sigma, St. Louis, Mo.), (3) intravenous delivery of 100 mL of saline (0.15 M NaCl), or (4) intravenous delivery of 100 mL of saline containing LPS from E. coli 0111:B4. A 5 mL syringe was used for administration of treatment into the oral cavity. […] Rectal temperature, respiration rate, and rumen contraction was measured from all cows 15 min before as well as 60, 120, 180, 240, 300, and 360 min after administration of treatment. […]
as §6

Setting [5] is: listed as lipopolysaccharide (LPS) from Escherichia coli 0:B55.
The mark [6] stands for this setting: during 6 h after administration, first week after parturition.

Take “lipopolysaccharide (LPS) from E. coli B:055 [LPS from E. coli strain B:055]”: the “increase of permeability of colon tissue to 3H-mannitol” value is reported as “increase several fold” in the series on colon tissue and 5 fold in the series on colon tissue (setting [5]). Further, the “effect on permeability of colon tissue to mannitol” value with colon tissue (pH values between 5.5 and 7.4) was “did not affect”. The “increase of permeability of rumen tissue to 3H-mannitol” value in the series with rumen tissue is reported as “increase several fold”; in the series with rumen tissue (setting [5]) it was 4 fold. For the same substance, the “effect on permeability of rumen tissue to mannitol” value in the series on rumen tissue (pH values between 5.5 and 7.4) is reported as “did not affect”.
With “lipopolysaccharide (LPS) from Escherichia coli 0111:B4 [LPS from E. coli 0111:B4]”, the “clinical record of individual cow” value in the series on transition dairy cows [1] (oral LPS group, one cow per block) is “Normal—Calved day 1, Lameness day 44, Mastitis day 71”. Moreover, the “reduction of the incidence of metabolic disorders” value in the series on transition dairy cows [1] (oral, after 30 d of parturition) is recorded as 66%. Besides, in the series on transition dairy cows [1] (oral, first 30 days after parturition), the “cows affected by metabolic disorders” value is on record as “not affected by any metabolic disorders”. Moreover, in the series on transition dairy cows [1] (oral, more than 30 days after parturition, one cow), the “cows of the group affected (lameness and mastitis)” value is 12%. Also, the “reduction of the incidence of metabolic disorders” value in the series on transition dairy cows [1] (oral, within the first 30 d after parturition) is listed as 100%. The “plasma glucose concentration vs control cows” value in the series with transition dairy cows [2] (2 wk before and 1 wk after calving) was “did not change and were higher”. For the same substance, in the series with transition dairy cows [2] (around parturition), the “plasma insulin vs control cows” value is “higher” and the plasma zinc result was “prevented the decline”. For the same substance, in the series with transition dairy cows [2] (before and after calving), the plasma copper result is reported as “no changes”. In the series on transition dairy cows [2] (setting [6]), the “plasma BHBA concentration vs control cows” value is “lower” and the “plasma NEFA concentration vs control cows” value was “lower”. Moreover, the “plasma cholesterol concentration vs control cows” value with transition dairy cows [2] (during the 6 h after treatment, last day of the vaccination) is “Higher”. Moreover, the “plasma lipopolysaccharide-binding protein (LBP) vs control cows” value in the series on transition dairy cows [2] (especially first 3 days after calving) is listed as “higher in control cows than in vaccinated ones”. In the series on transition dairy cows [2] (experimental period), the “plasma serum amyloid A (SAA) vs control group” value is reported as “no significant differences”. Further, the “plasma cholesterol concentration vs control cows” value in the series on transition dairy cows [2] (experimental period / first week after parturition) was “did not change between the two groups”. In the series on transition dairy cows [2] (first week after calving, before and after vaccination (FIG. 17)), the “plasma glucose concentration vs control cows” value is reported as “higher”. Further, the “dry matter intake vs control cows” value with transition dairy cows [3] is “no differences”. For the same substance, in the series on transition dairy cows [4], the “increase of plasma concentration of anti-LPS immunoglobulin M (IgM)” value was “several fold”; the “plasma IgA antibodies against endotoxin vs control cows” value is listed as “lower in vaccinated cows compared with the control ones, although the difference did not reach significant level”; the “plasma anti-endotoxin IgG antibodies vs control cows” value is “lower”.
